Experimental data from PubChem BioAssay (NCI).
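At the GI50, growth is halved. Definition used: TGI = concentration required for complete inhibition of growth.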

Legend:
Assay in all cases: inhibition of tumour cell growth, NCI panel, 384-well format
786-0 renal = system: 786-0 renal
A498 renal = system: A498 renal
A549 NSCLC = system: A549 NSCLC
ACHN renal = system: ACHN renal
BT-549 breast = system: BT-549 breast
CAKI-1 renal = system: CAKI-1 renal
CCRF-CEM leukemia = system: CCRF-CEM leukemia
COLO 205 colon = system: COLO 205 colon
DU-145 prostate = system: DU-145 prostate
EKVX NSCLC = system: EKVX NSCLC
HCC-2998 colon = system: HCC-2998 colon
HCT-15 colon = system: HCT-15 colon
HL-60(TB) leukemia = system: HL-60(TB) leukemia
HOP-62 NSCLC = system: HOP-62 NSCLC
HOP-92 NSCLC = system: HOP-92 NSCLC
HS 578T breast = system: HS 578T breast
HT29 colon = system: HT29 colon
IGROV1 ovarian = system: IGROV1 ovarian
KM12 colon = system: KM12 colon
M14 melanoma = system: M14 melanoma
MALME-3M melanoma = system: MALME-3M melanoma
MCF7 breast = system: MCF7 breast
MDA-MB-231 breast = system: MDA-MB-231 breast
MDA-MB-435 melanoma = system: MDA-MB-435 melanoma
MDA-MB-468 breast = system: MDA-MB-468 breast
MOLT-4 leukemia = system: MOLT-4 leukemia
NCI-H226 lung = system: NCI-H226 lung
NCI-H23 lung = system: NCI-H23 lung
NCI-H322M lung = system: NCI-H322M lung
NCI-H460 NSCLC = system: NCI-H460 NSCLC
NCI-H522 lung = system: NCI-H522 lung
NCI/ADR-RES ovarian = system: NCI/ADR-RES ovarian
OVCAR-3 ovarian = system: OVCAR-3 ovarian
OVCAR-4 ovarian = system: OVCAR-4 ovarian
OVCAR-5 ovarian = system: OVCAR-5 ovarian
OVCAR-8 ovarian = system: OVCAR-8 ovarian
PC-3 prostate = system: PC-3 prostate
RPMI-8226 leukemia = system: RPMI-8226 leukemia
RXF 393 renal = system: RXF 393 renal
SF-268 CNS = system: SF-268 CNS
SF-295 CNS = system: SF-295 CNS
SF-539 CNS = system: SF-539 CNS
SK-MEL-2 melanoma = system: SK-MEL-2 melanoma
SK-MEL-28 melanoma = system: SK-MEL-28 melanoma
SK-MEL-5 melanoma = system: SK-MEL-5 melanoma
SK-OV-3 ovarian = system: SK-OV-3 ovarian
SN12C renal = system: SN12C renal
SNB-19 CNS = system: SNB-19 CNS
SNB-75 CNS = system: SNB-75 CNS
SR leukemia = system: SR leukemia
SW-620 colon = system: SW-620 colon
T-47D breast = system: T-47D breast
TK-10 renal = system: TK-10 renal
U251 glioblastoma = system: U251 glioblastoma
UACC-257 melanoma = system: UACC-257 melanoma
UACC-62 melanoma = system: UACC-62 melanoma

Cc1[nH]c(/C=C2\C(=O)Nc3ccccc32)c(C)c1CCC(=O)O
GI50 (786-0 renal): 52 µM
TGI (786-0 renal): > 100 µM
GI50 (A498 renal): 29 µM
TGI (A498 renal): > 100 µM
GI50 (A549 NSCLC): 29.2 µM
TGI (A549 NSCLC): 84.7 µM
GI50 (ACHN renal): 24.6 µM
TGI (ACHN renal): 68.4 µM
GI50 (BT-549 breast): 18 µM
TGI (BT-549 breast): 42.3 µM
GI50 (CAKI-1 renal): 15.1 µM
TGI (CAKI-1 renal): 40.3 µM
GI50 (CCRF-CEM leukemia): 18.1 µM
TGI (CCRF-CEM leukemia): 34.4 µM
GI50 (COLO 205 colon): 22.8 µM
TGI (COLO 205 colon): 38.7 µM
GI50 (DU-145 prostate): 35.4 µM
TGI (DU-145 prostate): > 100 µM
GI50 (EKVX NSCLC): 17.6 µM
TGI (EKVX NSCLC): 52.7 µM
GI50 (HCC-2998 colon): 24.1 µM
TGI (HCC-2998 colon): 75.3 µM
GI50 (HCT-15 colon): 25.3 µM
TGI (HCT-15 colon): 59.6 µM
GI50 (HL-60(TB) leukemia): 23.9 µM
TGI (HL-60(TB) leukemia): 39.2 µM
GI50 (HOP-62 NSCLC): 42.4 µM
TGI (HOP-62 NSCLC): > 100 µM
GI50 (HOP-92 NSCLC): 19.8 µM
TGI (HOP-92 NSCLC): 43.3 µM
GI50 (HS 578T breast): 22.1 µM
TGI (HS 578T breast): 78.7 µM
GI50 (HT29 colon): 26 µM
TGI (HT29 colon): 67.6 µM
GI50 (IGROV1 ovarian): 25.6 µM
TGI (IGROV1 ovarian): 86.5 µM
GI50 (KM12 colon): 4.33 µM
TGI (KM12 colon): 52.9 µM
GI50 (M14 melanoma): 15.1 µM
TGI (M14 melanoma): 33.9 µM
GI50 (MALME-3M melanoma): 5.47 µM
TGI (MALME-3M melanoma): 23.1 µM
GI50 (MCF7 breast): 39.9 µM
TGI (MCF7 breast): > 100 µM
GI50 (MDA-MB-231 breast): 16.5 µM
TGI (MDA-MB-231 breast): 53 µM
GI50 (MDA-MB-435 melanoma): 21.3 µM
TGI (MDA-MB-435 melanoma): 51.4 µM
GI50 (MDA-MB-468 breast): 16.3 µM
TGI (MDA-MB-468 breast): 32.6 µM
GI50 (MOLT-4 leukemia): 16.3 µM
TGI (MOLT-4 leukemia): 30.3 µM
GI50 (NCI-H226 lung): 15.3 µM
TGI (NCI-H226 lung): 34.4 µM
GI50 (NCI-H23 lung): 16.6 µM
TGI (NCI-H23 lung): 40.1 µM
GI50 (NCI-H322M lung): 38.4 µM
TGI (NCI-H322M lung): > 100 µM
GI50 (NCI-H460 NSCLC): 17.6 µM
TGI (NCI-H460 NSCLC): 34.2 µM
GI50 (NCI-H522 lung): 21.2 µM
TGI (NCI-H522 lung): 62.1 µM
GI50 (NCI/ADR-RES ovarian): 31.9 µM
TGI (NCI/ADR-RES ovarian): > 100 µM
GI50 (OVCAR-3 ovarian): 27.4 µM
TGI (OVCAR-3 ovarian): 89 µM
GI50 (OVCAR-4 ovarian): 22.6 µM
TGI (OVCAR-4 ovarian): > 100 µM
GI50 (OVCAR-5 ovarian): 20.2 µM
TGI (OVCAR-5 ovarian): 55.3 µM
GI50 (OVCAR-8 ovarian): 32 µM
TGI (OVCAR-8 ovarian): > 100 µM
GI50 (PC-3 prostate): 24.6 µM
TGI (PC-3 prostate): 81.9 µM
GI50 (RPMI-8226 leukemia): 16.2 µM
TGI (RPMI-8226 leukemia): 30.5 µM
GI50 (RXF 393 renal): 56 µM
TGI (RXF 393 renal): > 100 µM
GI50 (SF-268 CNS): 24.5 µM
TGI (SF-268 CNS): 73.9 µM
GI50 (SF-295 CNS): > 100 µM
TGI (SF-295 CNS): > 100 µM
GI50 (SF-539 CNS): 13.1 µM
TGI (SF-539 CNS): 45.4 µM
GI50 (SK-MEL-2 melanoma): 24 µM
TGI (SK-MEL-2 melanoma): 41.7 µM
GI50 (SK-MEL-28 melanoma): 23.1 µM
TGI (SK-MEL-28 melanoma): 52.6 µM
GI50 (SK-MEL-5 melanoma): 17.2 µM
TGI (SK-MEL-5 melanoma): 36 µM
GI50 (SK-OV-3 ovarian): 14.3 µM
TGI (SK-OV-3 ovarian): 38.7 µM
GI50 (SN12C renal): 27.7 µM
TGI (SN12C renal): 89.3 µM
GI50 (SNB-19 CNS): 61.7 µM
TGI (SNB-19 CNS): > 100 µM
GI50 (SNB-75 CNS): 11.7 µM
TGI (SNB-75 CNS): > 100 µM
GI50 (SR leukemia): 19.1 µM
TGI (SR leukemia): 33.3 µM
GI50 (SW-620 colon): 19.6 µM
TGI (SW-620 colon): 41.4 µM
GI50 (T-47D breast): 53.7 µM
TGI (T-47D breast): > 100 µM
GI50 (TK-10 renal): 23.2 µM
TGI (TK-10 renal): 59.3 µM
GI50 (U251 glioblastoma): 35 µM
TGI (U251 glioblastoma): > 100 µM
GI50 (UACC-257 melanoma): 17.7 µM
TGI (UACC-257 melanoma): 47.8 µM
GI50 (UACC-62 melanoma): 25.9 µM
TGI (UACC-62 melanoma): 70.3 µM
